# Results: ChEMBL document CHEMBL1201862, “PubChem BioAssay data set” (2004)
# The source made the active and inactive calls.
# Experiments:
# [1] = NIH-3T3 fibroblast cytotoxicity, dose response, cytotoxicity control, cell-based, fluorescence, Alamar Blue, secondary assay (AID 2327); format: functional;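 note: NIH-3T3 mouse fibroblasts cultured with fluconazole at 8 µg/mL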
# [2] = C. albicans growth with fluconazole, confirmation, fluorescence, retest (AID 2467); format: functional, cell-based
# [3] = biological target: E3 ubiquitin-protein ligase Mdm2/Protein Mdm4 (Homo sapiens, UniProt O15151+Q00987); test: Mdm2-MdmX interaction inhibitors, dose response, luminescence detection (AID 504593); format: functional
# INS1 = test: beta cell apoptosis inhibitors, cytokine rescue, dose response, luminescence, retest (AID 449756); format: functional, cell-based; conditions: Rattus norvegicus;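 note: cell death triggered by IL-1 beta plus TNF-alpha plus IFN-gamma mixture; protective hits raise ATP signal compared with cytokine alone wells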
# [4] = Shn3 3'UTR reporter inhibitors, dose response, cell-based, Clone20 osteoblasts, firefly luciferase, cherry-picked (AID 624132); format: functional;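 note: firefly luciferase luminescence from reporter carrying the Shn3 3'UTR in osteoblasts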
# [5] = HepG2 cell cytotoxicity, dose response, cytotoxicity control for Shn3 inhibitor project, CellTiter-Glo, cherry-picked (AID 624134); format: functional, cell-based
# [6] = control 3'UTR Renilla luciferase suppression, dose response, counter-screen for Shn3 inhibitor project, cell-based, Clone20-Shn3RL, cherry-picked (AID 624133); format: functional
# Troponin, cardiac muscle = Troponin, cardiac muscle (Homo sapiens, UniProt P19429+P45379+P63316); test: Fluorescence-based biochemical high throughput dose response assay for activators of the calcium sensitivity of cardiac Regulated Thin Filaments (RTF). [Related pubchem assays (depositor defined):AID493008, AID493018, AID504382, AID504383]; format: protein-complex assay
# [7] = biological target: Voltage-dependent T-type calcium channel subunit alpha-1H (Homo sapiens, UniProt O95180); test: Cav3.2 T-type channel inhibitors, synthesized analogs, SAR follow-up, cell-based, synthetic library set 2, HEK293 HH8, Fluo-4 (AID 493023); format: functional
# Ion channel NompC = Ion channel NompC (Danio rerio, UniProt Q7T1G6); test: Dose response cell-based high-throughput screening assay for agonists of the transient receptor potential channel N1 (TRPN1). [Related pubchem assays (depositor defined):AID1424, AID1448]; format: functional
# Mucolipin-3 = biological target: T1, Mucolipin-3 (Homo sapiens, UniProt Q8TDD5); test: Fluorescence counterscreen assay for […] agonists: dose response cell-based high-throughput screening assay to identify agonists of the transient receptor potential channel ML3 (TRPML3). [Related pubchem assays: 1424, 1448 ]; format: functional
# T1 sequence (Q8TDD5 whole entry): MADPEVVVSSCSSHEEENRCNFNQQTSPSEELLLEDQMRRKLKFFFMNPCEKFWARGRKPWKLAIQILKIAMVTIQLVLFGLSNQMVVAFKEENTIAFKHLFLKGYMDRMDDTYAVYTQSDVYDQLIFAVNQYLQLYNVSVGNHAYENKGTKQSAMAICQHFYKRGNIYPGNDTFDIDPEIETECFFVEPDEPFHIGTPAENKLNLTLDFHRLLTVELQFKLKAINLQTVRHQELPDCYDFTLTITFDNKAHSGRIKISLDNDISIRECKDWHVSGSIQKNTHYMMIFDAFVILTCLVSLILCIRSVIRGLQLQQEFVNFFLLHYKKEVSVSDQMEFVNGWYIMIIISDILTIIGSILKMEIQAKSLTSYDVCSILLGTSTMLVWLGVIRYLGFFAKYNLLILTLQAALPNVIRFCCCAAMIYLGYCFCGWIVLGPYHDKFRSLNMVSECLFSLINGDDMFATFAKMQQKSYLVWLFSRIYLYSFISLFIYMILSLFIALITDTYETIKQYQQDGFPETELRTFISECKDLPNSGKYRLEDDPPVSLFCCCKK
# [8] = biological target: T2, Mannose-6-phosphate isomerase (Homo sapiens, UniProt P34949); test: PMI enzyme inhibitors, confirmation, biochemical, fluorescence intensity (AID 1535)
# T2 sequence (P34949 whole entry): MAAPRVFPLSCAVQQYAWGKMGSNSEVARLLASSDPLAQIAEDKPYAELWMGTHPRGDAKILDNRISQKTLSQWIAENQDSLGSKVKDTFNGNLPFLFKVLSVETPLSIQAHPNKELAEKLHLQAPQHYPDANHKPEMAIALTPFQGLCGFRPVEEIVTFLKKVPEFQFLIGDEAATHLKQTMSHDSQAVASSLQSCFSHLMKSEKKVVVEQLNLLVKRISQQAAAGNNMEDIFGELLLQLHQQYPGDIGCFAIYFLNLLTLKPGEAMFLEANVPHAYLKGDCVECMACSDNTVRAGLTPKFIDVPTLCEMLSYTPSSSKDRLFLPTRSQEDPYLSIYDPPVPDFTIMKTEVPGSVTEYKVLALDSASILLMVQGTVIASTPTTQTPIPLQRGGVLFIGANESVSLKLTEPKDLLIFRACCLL
# Phosphomannomutase 2 = Phosphomannomutase 2 (Homo sapiens, UniProt O15305); test: Counter screen SAR assay for PMM2 inhibitors via a fluorescence intensity assay. [Related pubchem assays (depositor defined):AID1545, AID1574]
# Phosphomannomutase 2, sequence (O15305 whole entry): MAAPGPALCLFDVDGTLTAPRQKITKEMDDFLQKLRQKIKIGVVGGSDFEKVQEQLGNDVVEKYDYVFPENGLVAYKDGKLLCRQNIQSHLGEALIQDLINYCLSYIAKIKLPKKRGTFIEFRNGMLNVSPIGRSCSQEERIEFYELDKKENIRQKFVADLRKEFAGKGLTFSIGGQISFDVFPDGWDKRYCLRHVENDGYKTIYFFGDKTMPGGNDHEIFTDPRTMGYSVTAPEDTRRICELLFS
# Mu-type opioid receptor = Mu-type opioid receptor (Homo sapiens, UniProt P35372); test: SAR Analysis of Antagonists of the MOR Receptor using an Image-Based Assay - Set 3. [Related pubchem assays (depositor defined):AID1777, AID1785, AID1786, AID1966, AID2133, AID2136, AID2284, AID2285, AID2420]; format: functional
# Mu-type opioid receptor, sequence (P35372 whole entry): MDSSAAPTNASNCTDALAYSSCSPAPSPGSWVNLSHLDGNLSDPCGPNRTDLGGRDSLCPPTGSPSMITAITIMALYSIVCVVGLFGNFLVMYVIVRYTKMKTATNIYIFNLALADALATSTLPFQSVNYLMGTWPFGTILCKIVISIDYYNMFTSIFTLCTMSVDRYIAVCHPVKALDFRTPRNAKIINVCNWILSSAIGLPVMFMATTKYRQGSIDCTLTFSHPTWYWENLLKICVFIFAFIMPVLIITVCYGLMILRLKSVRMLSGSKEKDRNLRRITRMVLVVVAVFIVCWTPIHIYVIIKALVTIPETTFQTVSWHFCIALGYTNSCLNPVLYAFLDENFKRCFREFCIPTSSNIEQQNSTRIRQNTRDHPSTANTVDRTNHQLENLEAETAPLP
# [9] = biological target: T3, Kappa-type opioid receptor (Homo sapiens, UniProt P41145); test: SAR analysis of small molecule antagonists of the kappa opioid receptor via a luminescent beta-arrestin assay - Set 6. [Related pubchem assays (depositor defined):AID1777, AID1778, AID1785, AID1786, AID1966, AID2133, AID2136, AID2285]; format: functional
# T3 sequence (P41145 whole entry): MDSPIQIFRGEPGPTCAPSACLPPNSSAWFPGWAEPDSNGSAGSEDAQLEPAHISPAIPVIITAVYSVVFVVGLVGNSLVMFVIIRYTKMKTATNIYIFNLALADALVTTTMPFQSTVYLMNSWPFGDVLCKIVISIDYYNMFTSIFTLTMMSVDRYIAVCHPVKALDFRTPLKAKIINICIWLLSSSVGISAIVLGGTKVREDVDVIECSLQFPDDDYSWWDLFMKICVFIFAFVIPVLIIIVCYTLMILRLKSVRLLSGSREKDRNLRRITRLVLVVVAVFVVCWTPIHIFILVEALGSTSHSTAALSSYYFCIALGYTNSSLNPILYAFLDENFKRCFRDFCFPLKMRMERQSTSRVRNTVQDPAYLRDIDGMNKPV
# [10] = biological target: Delta-type opioid receptor (Homo sapiens, UniProt P41143); test: SAR Analysis of Antagonists of the DOR Receptor using an Image-Based Assay - Set 3. [Related pubchem assays (depositor defined):AID1777, AID1785]; format: functional;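 note: U2OS cells expressing DOR1 and beta-arrestin GFP stimulated with 100 nM SNC80; imaging of GFP-tagged beta-arrestin moving into spots after receptor activation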
# Delta-type opioid receptor, sequence (P41143 whole entry): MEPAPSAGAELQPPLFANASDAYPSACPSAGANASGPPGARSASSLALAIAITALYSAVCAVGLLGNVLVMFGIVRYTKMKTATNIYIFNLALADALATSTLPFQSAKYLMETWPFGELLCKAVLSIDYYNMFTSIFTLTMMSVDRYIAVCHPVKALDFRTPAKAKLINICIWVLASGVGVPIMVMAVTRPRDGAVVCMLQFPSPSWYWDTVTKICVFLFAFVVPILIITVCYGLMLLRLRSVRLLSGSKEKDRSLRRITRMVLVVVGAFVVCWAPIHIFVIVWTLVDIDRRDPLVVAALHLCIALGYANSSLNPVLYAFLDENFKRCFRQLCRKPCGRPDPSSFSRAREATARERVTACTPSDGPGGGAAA
# [11] = biological target: T3, Kappa-type opioid receptor; test: SAR analysis of small molecule antagonists of the kappa opioid receptor via a luminescent beta-arrestin assay - Set 3. [Related pubchem assays (depositor defined):AID1777, AID1778, AID1785, AID1786, AID1966, AID2133, AID2136, AID2285, AID2495]; format: functional
# [12] = biological target: T3, Kappa-type opioid receptor; test: SAR analysis of Antagonists of the Kappa Opioid Receptor (KOR) using an Image-Based Assay - Set 4. [Related pubchem assays (depositor defined):AID1777, AID1785]; format: functional
# [13] = biological target: T4, Short transient receptor potential channel 4 (Mus musculus, UniProt Q9QUQ5); test: TRPC4 positive allosteric modulators, dose response, cell-based, HEK293 TRPC4/mu-opioid, Fluo-4 calcium, EC20 DAMGO (AID 434941); format: functional
# T4 sequence (Q9QUQ5 whole entry): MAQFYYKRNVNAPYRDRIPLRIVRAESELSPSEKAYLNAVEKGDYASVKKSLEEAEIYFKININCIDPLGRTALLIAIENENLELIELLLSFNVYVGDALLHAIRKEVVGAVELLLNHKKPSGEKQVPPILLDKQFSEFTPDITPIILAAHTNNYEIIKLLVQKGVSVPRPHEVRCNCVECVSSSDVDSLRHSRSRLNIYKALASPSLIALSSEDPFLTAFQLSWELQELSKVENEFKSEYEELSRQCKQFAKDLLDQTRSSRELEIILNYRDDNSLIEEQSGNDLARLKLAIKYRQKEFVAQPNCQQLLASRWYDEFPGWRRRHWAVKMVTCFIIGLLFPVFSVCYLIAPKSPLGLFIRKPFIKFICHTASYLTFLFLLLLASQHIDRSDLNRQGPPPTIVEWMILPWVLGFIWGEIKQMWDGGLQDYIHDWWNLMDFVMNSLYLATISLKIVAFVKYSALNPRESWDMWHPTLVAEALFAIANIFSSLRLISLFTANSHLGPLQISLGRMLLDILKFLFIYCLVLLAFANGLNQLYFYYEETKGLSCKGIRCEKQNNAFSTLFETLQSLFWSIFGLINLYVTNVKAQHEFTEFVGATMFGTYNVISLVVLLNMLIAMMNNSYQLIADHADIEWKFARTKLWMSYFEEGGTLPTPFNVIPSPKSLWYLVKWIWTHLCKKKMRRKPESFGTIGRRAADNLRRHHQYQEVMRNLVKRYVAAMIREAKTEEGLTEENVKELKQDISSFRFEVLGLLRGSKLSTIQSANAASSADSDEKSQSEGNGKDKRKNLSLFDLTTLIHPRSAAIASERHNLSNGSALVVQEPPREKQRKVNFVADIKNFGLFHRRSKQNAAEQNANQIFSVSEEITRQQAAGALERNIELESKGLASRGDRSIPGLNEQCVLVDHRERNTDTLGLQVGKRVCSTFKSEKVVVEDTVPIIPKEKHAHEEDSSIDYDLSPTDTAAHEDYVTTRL
# [14] = biological target: Alkaline phosphatase, placental type (Homo sapiens, UniProt P05187); test: PLAP enzyme inhibitors, confirmation, biochemical, luminescence (AID 1512); format: functional
# [15] = biological target: Alkaline phosphatase, tissue-nonspecific isozyme (Homo sapiens, UniProt P05186); test: human TNAP enzyme inhibitors, SAR follow-up, biochemical, luminescent, dose response (AID 1056)
# Coagulation factor XII = biological target: T5, Coagulation factor XII (Homo sapiens, UniProt P00748); format: functional;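 note: activated factor XIIa alpha cleaving a fluorogenic AMC peptide substrate; inhibitor potency from loss of enzyme activity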
# T5 sequence (P00748 whole entry): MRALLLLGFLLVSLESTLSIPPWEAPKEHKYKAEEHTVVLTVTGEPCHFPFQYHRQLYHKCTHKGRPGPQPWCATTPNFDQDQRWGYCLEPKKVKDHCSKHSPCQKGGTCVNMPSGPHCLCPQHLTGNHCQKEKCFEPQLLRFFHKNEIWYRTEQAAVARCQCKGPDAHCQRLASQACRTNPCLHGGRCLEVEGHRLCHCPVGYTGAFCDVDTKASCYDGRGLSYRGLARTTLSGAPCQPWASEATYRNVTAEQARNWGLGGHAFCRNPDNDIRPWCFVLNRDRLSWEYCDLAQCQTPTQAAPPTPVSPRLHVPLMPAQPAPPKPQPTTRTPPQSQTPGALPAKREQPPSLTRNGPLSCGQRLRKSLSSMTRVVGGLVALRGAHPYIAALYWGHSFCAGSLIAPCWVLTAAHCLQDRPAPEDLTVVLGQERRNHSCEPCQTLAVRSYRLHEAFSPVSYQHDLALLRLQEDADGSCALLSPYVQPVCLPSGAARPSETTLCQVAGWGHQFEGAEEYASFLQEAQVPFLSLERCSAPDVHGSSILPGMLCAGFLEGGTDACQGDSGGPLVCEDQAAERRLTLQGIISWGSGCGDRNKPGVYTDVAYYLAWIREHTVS
# [16] = biological target: DNA damage-inducible transcript 3 protein (Mus musculus, UniProt P35639); format: functional, Cricetulus griseus
# DNA damage-inducible transcript 3 protein, sequence (P35639 whole entry): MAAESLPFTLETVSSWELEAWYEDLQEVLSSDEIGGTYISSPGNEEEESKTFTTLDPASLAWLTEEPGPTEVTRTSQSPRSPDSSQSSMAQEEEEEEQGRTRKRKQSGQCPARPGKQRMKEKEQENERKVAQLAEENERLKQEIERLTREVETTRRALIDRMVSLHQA
# X-box-binding protein 1 = X-box-binding protein 1 (Homo sapiens, UniProt P17861); format: functional, Cricetulus griseus;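 note: confirmatory dose-response counter-screen serving a CHOP assay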
# X-box-binding protein 1, sequence (P17861 whole entry, the tested form may be a part): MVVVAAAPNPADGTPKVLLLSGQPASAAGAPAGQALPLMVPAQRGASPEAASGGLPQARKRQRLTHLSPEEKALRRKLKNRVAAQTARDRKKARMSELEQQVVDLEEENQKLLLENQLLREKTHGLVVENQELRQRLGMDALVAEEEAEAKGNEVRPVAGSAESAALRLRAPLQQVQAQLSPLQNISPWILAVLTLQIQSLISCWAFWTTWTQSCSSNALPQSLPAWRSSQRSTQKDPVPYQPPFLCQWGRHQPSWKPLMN
# Fatty acid synthase [17] = biological target: T6, Fatty acid synthase (Homo sapiens, UniProt P49327); test: FAS thioesterase domain inhibitors, dose response, biochemical, endpoint fluorescence intensity, uHTS hits (AID 624327); format: functional;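 note: fluorescence from hydrolysis of an O-methyl fluorescein acyl ester substrate by the enzyme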
# T6 sequence (P49327 whole entry, the tested form may be a part): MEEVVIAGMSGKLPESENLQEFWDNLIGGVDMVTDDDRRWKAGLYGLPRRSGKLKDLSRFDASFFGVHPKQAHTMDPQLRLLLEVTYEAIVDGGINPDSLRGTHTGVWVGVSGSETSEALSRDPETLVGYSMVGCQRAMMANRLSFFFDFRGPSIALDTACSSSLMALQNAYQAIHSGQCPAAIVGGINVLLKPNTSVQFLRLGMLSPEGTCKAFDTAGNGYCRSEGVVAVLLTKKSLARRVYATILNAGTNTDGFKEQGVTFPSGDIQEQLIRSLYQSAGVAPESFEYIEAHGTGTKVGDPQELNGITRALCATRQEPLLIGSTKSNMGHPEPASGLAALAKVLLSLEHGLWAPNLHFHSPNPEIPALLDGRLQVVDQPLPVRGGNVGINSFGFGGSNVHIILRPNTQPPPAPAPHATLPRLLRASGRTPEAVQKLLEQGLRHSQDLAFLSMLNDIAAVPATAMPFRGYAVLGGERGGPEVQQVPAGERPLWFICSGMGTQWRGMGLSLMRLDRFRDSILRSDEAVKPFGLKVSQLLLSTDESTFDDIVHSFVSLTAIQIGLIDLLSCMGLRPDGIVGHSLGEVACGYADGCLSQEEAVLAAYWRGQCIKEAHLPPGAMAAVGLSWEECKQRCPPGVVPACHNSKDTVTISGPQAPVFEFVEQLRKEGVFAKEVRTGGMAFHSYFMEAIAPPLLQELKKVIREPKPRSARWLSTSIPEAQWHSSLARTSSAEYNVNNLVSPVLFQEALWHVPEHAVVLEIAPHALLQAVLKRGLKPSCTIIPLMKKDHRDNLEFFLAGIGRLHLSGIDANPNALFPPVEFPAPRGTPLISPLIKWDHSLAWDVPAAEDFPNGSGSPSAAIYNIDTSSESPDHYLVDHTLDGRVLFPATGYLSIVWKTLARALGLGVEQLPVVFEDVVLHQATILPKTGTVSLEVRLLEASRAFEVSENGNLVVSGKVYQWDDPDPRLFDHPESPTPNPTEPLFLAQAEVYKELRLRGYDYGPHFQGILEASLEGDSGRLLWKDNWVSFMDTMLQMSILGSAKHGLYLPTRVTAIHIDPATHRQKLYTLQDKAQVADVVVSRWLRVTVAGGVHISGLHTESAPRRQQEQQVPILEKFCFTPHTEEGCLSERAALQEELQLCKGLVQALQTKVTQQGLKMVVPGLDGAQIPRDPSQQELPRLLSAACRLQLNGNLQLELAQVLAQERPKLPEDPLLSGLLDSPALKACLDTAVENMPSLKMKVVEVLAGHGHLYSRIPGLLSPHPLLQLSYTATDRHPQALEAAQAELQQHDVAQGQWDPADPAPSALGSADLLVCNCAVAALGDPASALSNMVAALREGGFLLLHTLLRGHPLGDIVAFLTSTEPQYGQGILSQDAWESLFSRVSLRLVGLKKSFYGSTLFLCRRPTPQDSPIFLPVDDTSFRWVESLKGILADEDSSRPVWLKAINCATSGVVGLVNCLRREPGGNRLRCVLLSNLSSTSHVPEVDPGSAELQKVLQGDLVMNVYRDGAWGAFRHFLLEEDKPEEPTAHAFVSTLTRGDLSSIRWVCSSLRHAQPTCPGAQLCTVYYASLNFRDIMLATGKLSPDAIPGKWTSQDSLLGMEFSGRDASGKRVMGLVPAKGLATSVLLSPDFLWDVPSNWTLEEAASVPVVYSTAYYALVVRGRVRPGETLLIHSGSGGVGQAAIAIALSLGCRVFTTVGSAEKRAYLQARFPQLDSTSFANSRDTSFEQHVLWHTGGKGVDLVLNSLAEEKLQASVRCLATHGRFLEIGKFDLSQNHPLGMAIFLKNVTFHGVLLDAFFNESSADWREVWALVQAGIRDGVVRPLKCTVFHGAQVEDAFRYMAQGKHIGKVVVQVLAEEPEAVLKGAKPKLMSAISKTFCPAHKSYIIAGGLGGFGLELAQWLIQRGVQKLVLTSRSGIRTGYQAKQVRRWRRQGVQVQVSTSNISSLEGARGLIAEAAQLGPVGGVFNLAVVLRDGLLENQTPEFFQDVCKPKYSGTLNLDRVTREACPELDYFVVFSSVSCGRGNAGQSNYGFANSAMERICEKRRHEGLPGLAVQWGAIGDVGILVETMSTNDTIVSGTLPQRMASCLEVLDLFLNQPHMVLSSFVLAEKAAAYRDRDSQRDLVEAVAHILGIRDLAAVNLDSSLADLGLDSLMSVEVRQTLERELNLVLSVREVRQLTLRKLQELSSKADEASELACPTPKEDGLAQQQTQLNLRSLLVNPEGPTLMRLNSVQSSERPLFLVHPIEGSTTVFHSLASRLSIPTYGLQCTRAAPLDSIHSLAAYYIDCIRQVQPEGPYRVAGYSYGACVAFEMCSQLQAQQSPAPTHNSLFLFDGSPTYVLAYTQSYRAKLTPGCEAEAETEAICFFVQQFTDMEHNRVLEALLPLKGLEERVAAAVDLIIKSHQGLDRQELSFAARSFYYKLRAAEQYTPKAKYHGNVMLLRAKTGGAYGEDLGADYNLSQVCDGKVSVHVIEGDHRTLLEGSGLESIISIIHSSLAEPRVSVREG
# Fatty acid synthase [18] = biological target: T6, Fatty acid synthase; test: FAS thioesterase domain inhibitors, dose response, biochemical, kinetic fluorescence intensity (AID 624326); format: functional;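 note: rate of fluorescence rise from hydrolysis of a fluorogenic O-methyl fluorescein ester substrate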
# Cytochrome P450 3A4 = Cytochrome P450 3A4 (Homo sapiens, UniProt P08684);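 note: CYP3A4 tested as one member of a cytochrome P450 panel screen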
# Cytochrome P450 3A4, sequence (P08684 whole entry): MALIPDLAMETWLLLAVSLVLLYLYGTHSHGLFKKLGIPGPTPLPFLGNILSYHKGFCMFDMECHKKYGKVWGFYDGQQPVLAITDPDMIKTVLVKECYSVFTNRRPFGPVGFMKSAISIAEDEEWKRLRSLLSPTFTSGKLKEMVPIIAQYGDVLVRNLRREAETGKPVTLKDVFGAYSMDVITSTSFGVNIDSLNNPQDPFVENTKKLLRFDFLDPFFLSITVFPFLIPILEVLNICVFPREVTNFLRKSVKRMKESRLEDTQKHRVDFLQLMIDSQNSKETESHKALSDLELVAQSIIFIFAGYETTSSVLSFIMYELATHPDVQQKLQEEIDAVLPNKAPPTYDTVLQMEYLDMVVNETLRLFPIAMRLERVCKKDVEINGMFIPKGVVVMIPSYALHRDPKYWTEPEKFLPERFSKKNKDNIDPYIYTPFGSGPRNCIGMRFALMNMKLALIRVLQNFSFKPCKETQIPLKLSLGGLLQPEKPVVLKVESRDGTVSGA
compound,measurement,setting,value
CCOc1cc(N2CCOCC2)c(OCC)cc1NC(=O)COc1cccc2cccnc12,EC50,[1],> 150 µM (inactive)
same,EC50,[2],> 38 µM (not active)
same,IC50,[3],4.99 µM (active)
same,AC50,INS1,3.83 µM (active)
same,AC50,[4],2.41 µM (active)
same,AC50,[5],8.92 µM (active)
same,AC50,[6],5.04 µM (active)
Cc1cc(S(=O)(=O)N2CCCC(C(=O)Nc3ccc(C(=O)O)cc3)C2)ccc1Cl (centres undefined),EC50,"Troponin, cardiac muscle",> 71.5 µM (inactive)
CC(C)(C)CCN1CCC[C@H](NC(=O)COc2ccc(F)cc2Cl)C1,EC50,[7],2.4 µM (active)
N#C/C(=C(/O)C(Cl)(Cl)Cl)c1nc2ccccc2[nH]1,EC50,Ion channel NompC,> 29.9 µM (inactive)
same,EC50,Mucolipin-3,> 29.9 µM (not active)
CCOC(=O)c1ccc(NC2Nc3cc(C)nn3S2)cc1 (centres undefined),IC50,[8],> 50 µM (inactive)
same,IC50,Phosphomannomutase 2,> 100 µM (inactive)
O=C(Cn1c(=O)c2cccn2c2cccnc21)NCCCN1CCN(c2ccc(Cl)cc2)CC1,IC50,Mu-type opioid receptor,> 32 µM (inactive)
same,IC50,[9],6.93 µM (active)
same,IC50,[10],> 32 µM (inactive)
same,IC50,[11],3.44 µM (active)
same,IC50,[12],0.096 µM (active)
Cc1cc(-c2ccc(C)c(S(=O)(=O)N3CCN(C(=O)c4ccco4)CC3)c2)on1,EC50,[13],6.68 µM (active)
COc1ccc(C(=O)CSc2nc3cc(C)c(C)cc3[nH]2)cc1OC,IC50,[14],> 100 µM (inactive)
same,IC50,[15],> 100 µM (inactive)
Cc1cc(C)c(C)c(S(=O)(=O)ON2C(=O)c3ccccc3C2=O)c1C,EC50,[1],3.15 µM (inconclusive)
same,EC50,[2],4.78 µM (active)
same,IC50,Coagulation factor XII,12.9 µM (active)
same,Absolute IC50 (CHOP),[16],10 µM
same,Absolute IC50 (XBP1),X-box-binding protein 1,10 µM
same,IC50,Fatty acid synthase [17],0.61 µM (active)
same,IC50,Fatty acid synthase [18],0.417 µM (active)
same,AC50,Cytochrome P450 3A4,39.8 µM (inconclusive)
